Tests used:
[1] = system: Mus musculus; experiment: Tested for biodistribution of radioactivity after 5 min of intravenous injection in mice blood; assay type: ADME, organism-based; settings: in vivo
[2] = system: Mus musculus; experiment: Tested for biodistribution of radioactivity after 3h of intravenous injection in mice neck; assay type: ADME, organism-based; settings: in vivo
[3] = system: Mus musculus; experiment: Tested for biodistribution of radioactivity after 1 hr of intravenous injection in mice stomach; assay type: ADME, organism-based; settings: in vivo
[4] = system: Mus musculus; experiment: Tested for biodistribution of radioactivity after 3h of intravenous injection in mice blood; assay type: ADME, organism-based; settings: in vivo
[5] = system: Mus musculus; experiment: Tested for biodistribution of radioactivity after 6 hr of intravenous injection in mice urine; assay type: ADME, organism-based; settings: in vivo
[6] = system: Mus musculus; experiment: Tested for biodistribution of radioactivity after 24 hr of intravenous injection in mice feces; assay type: ADME, organism-based; settings: in vivo
[7] = system: Mus musculus; experiment: Tested for biodistribution of radioactivity after 1 hr of intravenous injection in mice intestines; assay type: ADME, organism-based, Intestine; settings: in vivo
[8] = system: Mus musculus; experiment: Tested for biodistribution of radioactivity after 30 min of intravenous injection in mice liver; assay type: ADME, organism-based; settings: in vivo, 0.5 h
[9] = system: Mus musculus; experiment: Tested for biodistribution of radioactivity after 6 hr of intravenous injection in mice feces; assay type: ADME, organism-based; settings: in vivo
[10] = system: Mus musculus; experiment: Tested for biodistribution of radioactivity after 6 hr of intravenous injection in mice liver; assay type: ADME, organism-based; settings: in vivo
[11] = system: Mus musculus; experiment: Tested for biodistribution of radioactivity after 6 hr of intravenous injection in mice stomach; assay type: ADME, organism-based; settings: in vivo
[12] = system: Mus musculus; experiment: Tested for biodistribution of radioactivity after 1 hr of intravenous injection in mice blood; assay type: ADME, organism-based; settings: in vivo
[13] = system: Mus musculus; experiment: Tested for biodistribution of radioactivity after 5 min of intravenous injection in mice kidneys; assay type: ADME, organism-based; settings: in vivo
[14] = system: Mus musculus; experiment: Tested for biodistribution of radioactivity after 1 hr of intravenous injection in mice liver; assay type: ADME, organism-based; settings: in vivo
[15] = system: Mus musculus; experiment: Tested for biodistribution of radioactivity after 24 hr of intravenous injection in mice liver; assay type: ADME, organism-based; settings: in vivo
[16] = system: Mus musculus; experiment: Tested for biodistribution of radioactivity after 1 hr of intravenous injection in mice kidneys; assay type: ADME, organism-based, Kidney; settings: in vivo
[17] = system: Mus musculus; experiment: Tested for biodistribution of radioactivity after 30 min of intravenous injection in mice stomach; assay type: ADME, organism-based; settings: in vivo, 0.5 h
[18] = system: Mus musculus; experiment: Tested for biodistribution of radioactivity after 24 hr of intravenous injection in mice intestines; assay type: ADME, organism-based, Intestine; settings: in vivo
[19] = system: Mus musculus; experiment: Tested for biodistribution of radioactivity after 30 min of intravenous injection in mice neck; assay type: ADME, organism-based; settings: in vivo, 0.5 h
[20] = system: Mus musculus; experiment: Tested for biodistribution of radioactivity after 6 hr of intravenous injection in mice intestines; assay type: ADME, organism-based, Intestine; settings: in vivo
[21] = system: Mus musculus; experiment: Tested for biodistribution of radioactivity after 24 hr of intravenous injection in mice neck; assay type: ADME, organism-based; settings: in vivo
[22] = system: Mus musculus; experiment: Tested for biodistribution of radioactivity after 24 hr of intravenous injection in mice blood; assay type: ADME, organism-based; settings: in vivo
[23] = system: Mus musculus; experiment: Tested for biodistribution of radioactivity after 5 min of intravenous injection in mice liver; assay type: ADME, organism-based; settings: in vivo
[24] = system: Mus musculus; experiment: Tested for biodistribution of radioactivity after 5 min of intravenous injection in mice intestines; assay type: ADME, organism-based, Intestine; settings: in vivo
[25] = system: Mus musculus; experiment: Tested for biodistribution of radioactivity after 5 min of intravenous injection in mice neck; assay type: ADME, organism-based; settings: in vivo
[26] = system: Mus musculus; experiment: Tested for biodistribution of radioactivity after 24 hr of intravenous injection in mice stomach; assay type: ADME, organism-based; settings: in vivo
[27] = system: Mus musculus; experiment: Tested for biodistribution of radioactivity after 3h of intravenous injection in mice kidneys; assay type: ADME, organism-based, Kidney; settings: in vivo
[28] = system: Mus musculus; experiment: Tested for biodistribution of radioactivity after 24 hr of intravenous injection in mice urine; assay type: ADME, organism-based; settings: in vivo
[29] = system: Mus musculus; experiment: Tested for biodistribution of radioactivity after 30 min of intravenous injection in mice lintestines; assay type: ADME, organism-based, Intestine; settings: in vivo, 0.5 h
[30] = system: Mus musculus; experiment: Tested for biodistribution of radioactivity after 30 min of intravenous injection in mice blood; assay type: ADME, organism-based; settings: in vivo, 0.5 h
[31] = system: Mus musculus; experiment: Tested for biodistribution of radioactivity after 24 hr of intravenous injection in mice kidneys; assay type: ADME, organism-based, Kidney; settings: in vivo
[32] = system: Mus musculus; experiment: Tested for biodistribution of radioactivity after 1 hr of intravenous injection in mice neck; assay type: ADME, organism-based; settings: in vivo
[33] = system: Mus musculus; experiment: Tested for biodistribution of radioactivity after 3h of intravenous injection in mice stomach; assay type: ADME, organism-based; settings: in vivo
[34] = system: Mus musculus; experiment: Tested for biodistribution of radioactivity after 6 hr of intravenous injection in mice blood; assay type: ADME, organism-based; settings: in vivo
[35] = system: Mus musculus; experiment: Tested for biodistribution of radioactivity after 6 hr of intravenous injection in mice spleen; assay type: ADME, organism-based; settings: in vivo
[36] = system: Mus musculus; experiment: Tested for biodistribution of radioactivity after 3h of intravenous injection in mice spleen; assay type: ADME, organism-based; settings: in vivo
[37] = system: Mus musculus; experiment: Tested for biodistribution of radioactivity after 1 hr of intravenous injection in mice spleen; assay type: ADME, organism-based; settings: in vivo
[38] = system: Mus musculus; experiment: Tested for biodistribution of radioactivity after 6 hr of intravenous injection in mice kidneys; assay type: ADME, organism-based, Kidney; settings: in vivo
[39] = system: Mus musculus; experiment: Tested for biodistribution of radioactivity after 24 hr of intravenous injection in mice spleen; assay type: ADME, organism-based; settings: in vivo
[40] = system: Mus musculus; experiment: Tested for biodistribution of radioactivity after 5 min of intravenous injection in mice spleen; assay type: ADME, organism-based; settings: in vivo
[41] = system: Mus musculus; experiment: Tested for biodistribution of radioactivity after 6 hr of intravenous injection in mice neck; assay type: ADME, organism-based; settings: in vivo
[42] = system: Mus musculus; experiment: Tested for biodistribution of radioactivity after 3h of intravenous injection in mice intestines; assay type: ADME, organism-based, Intestine; settings: in vivo
[43] = system: Mus musculus; experiment: Tested for biodistribution of radioactivity after 30 min of intravenous injection in mice spleen; assay type: ADME, organism-based; settings: in vivo, 0.5 h
[44] = system: Mus musculus; experiment: Tested for biodistribution of radioactivity after 3h of intravenous injection in mice liver; assay type: ADME, organism-based; settings: in vivo
[45] = system: Mus musculus; experiment: Tested for biodistribution of radioactivity after 30 min of intravenous injection in mice kidneys; assay type: ADME, organism-based; settings: in vivo, 0.5 h
[46] = system: Mus musculus; experiment: Tested for biodistribution of radioactivity after 5 min of intravenous injection in mice stomach; assay type: ADME, organism-based; settings: in vivo

Q: With `CN[C@@H](CSC1CC(=O)N(CCOC(=O)CNC(=O)c2cccc(I)c2)C1=O)C(=O)O` (some centres not stated) as the compound, how does the Dose/g [1] read?
A: 0.45%

Q: What about the Dose/organ [2] of the same compound?
A: 0.02%

Q: What about the Dose/organ [3] of the same compound?
A: 0.56%

Q: What about the Dose/g [4] of the same compound?
A: 0.09%

Q: What about the Dose/organ [5] of the same compound?
A: 78.35%

Q: What about the Dose/organ [6] of the same compound?
A: 3.52%

Q: And the Dose/organ [7]?
A: 6.11%

Q: What about the Dose/organ [8] of the same compound?
A: 12.28%

Q: And the Dose/organ [9]?
A: 2.3%

Q: And the Dose/organ [10]?
A: 0.58%

Q: What about the Dose/organ [11] of the same compound?
A: 0.45%

Q: What about the Dose/g [12] of the same compound?
A: 0.24%

Q: What about the Dose/organ [13] of the same compound?
A: 0.65%

Q: And the Dose/organ [14]?
A: 3.98%

Q: And the Dose/organ [15]?
A: 0.27%

Q: What about the Dose/organ [16] of the same compound?
A: 2.79%

Q: What about the Dose/organ [17] of the same compound?
A: 0.59%

Q: And the Dose/organ [18]?
A: 0.05%

Q: What about the Dose/organ [19] of the same compound?
A: 0.11%

Q: And the Dose/organ [20]?
A: 0.84%

Q: What about the Dose/organ [21] of the same compound?
A: 0.01%

Q: And the Dose/g [22]?
A: 0.02%

Q: What about the Dose/organ [23] of the same compound?
A: 92.56%

Q: What about the Dose/organ [24] of the same compound?
A: 0.28%

Q: What about the Dose/organ [25] of the same compound?
A: 0.07%

Q: And the Dose/organ [26]?
A: 0.05%

Q: What about the Dose/organ [27] of the same compound?
A: 0.14%

Q: And the Dose/organ [28]?
A: 90.6%

Q: And the Dose/organ [29]?
A: 9.99%

Q: What about the Dose/g [30] of the same compound?
A: 1.01%

Q: What about the Dose/organ [31] of the same compound?
A: 0.02%

Q: What about the Dose/organ [32] of the same compound?
A: 0.06%

Q: And the Dose/organ [33]?
A: 0.52%

Q: And the Dose/g [34]?
A: 0.03%

Q: What about the Dose/organ [35] of the same compound?
A: 0.07%

Q: And the Dose/organ [36]?
A: 0.07%

Q: What about the Dose/organ [37] of the same compound?
A: 0.1%

Q: And the Dose/organ [38]?
A: 0.06%

Q: And the Dose/organ [39]?
A: 0.04%

Q: And the Dose/organ [40]?
A: 0.21%

Q: And the Dose/organ [41]?
A: 0.02%

Q: What about the Dose/organ [42] of the same compound?
A: 2.54%

Q: What about the Dose/organ [43] of the same compound?
A: 0.12%

Q: And the Dose/organ [44]?
A: 1.56%

Q: What about the Dose/organ [45] of the same compound?
A: 5.34%

Q: What about the Dose/organ [46] of the same compound?
A: 0.18%

Q: What does the source list for `CN[C@@H](CCCCN)C(=O)NC(=O)c1cccc(I)c1`?
A: Dose/g [1]: 0.95%; Dose/organ [2]: 0.02%; Dose/organ [3]: 0.43%; Dose/g [4]: 0.11%; Dose/organ [5]: 63.2%; Dose/organ [6]: 3.26%; Dose/organ [7]: 10.73%; Dose/organ [8]: 21.18%; Dose/organ [9]: 1.53%; Dose/organ [10]: 2.82%; Dose/organ [11]: 0.32%; Dose/g [12]: 0.28%; Dose/organ [13]: 0.8%; Dose/organ [14]: 6.96%; Dose/organ [15]: 0.18%; Dose/organ [16]: 1.71%; Dose/organ [17]: 0.65%; Dose/organ [18]: 0.07%; Dose/organ [19]: 0.14%; Dose/organ [20]: 1.83%; Dose/organ [21]: 0.01%; Dose/organ [22]: 0.01%; Dose/organ [23]: 92.86%; Dose/organ [24]: 0.41%; Dose/organ [25]: 0.16%; Dose/organ [26]: 0.04%; Dose/organ [27]: 0.7%; Dose/organ [28]: 83.9%; Dose/organ [29]: 9.45%; Dose/g [30]: 1.16%; Dose/organ [31]: 0.02%; Dose/organ [32]: 0.03%; Dose/organ [33]: 0.36%; Dose/g [34]: 0.04%; Dose/organ [35]: 0.02%; Dose/organ [36]: 0.01%; Dose/organ [37]: 0.09%; Dose/organ [38]: 0.31%; Dose/organ [39]: 0.02%; Dose/organ [40]: 0.02%; Dose/organ [41]: 0.01%; Dose/organ [42]: 6.42%; Dose/organ [43]: 0.07%; Dose/organ [44]: 4.18%; Dose/organ [45]: 6.42%; Dose/organ [46]: 0.16%

Reference: ChEMBL document CHEMBL1127612, “Maleimidoethyl 3-(tri-n-butylstannyl)hippurate: a useful radioiodination reagent for protein radiopharmaceuticals to enhance target selective radioactivity localization” (J Med Chem, 1994)
